According to US10961200B2, “Small molecule inhibitors of lactate dehydrogenase and methods of use thereof” (THE UNITED STATES OF AMERICA, AS REPRESENTED BY THE …, priority 2014, dated 2021):
Like-named read-outs stand apart in the source and are kept apart here.

How the values were obtained:
[1] = biological target: Human LDHA (Homo sapiens (Human), UniProt P00338); assay: human LDHA primary biochemical assay (resazurin/diaphorase coupled, fluorescence)
From the text: Test compounds were placed in a Greiner Bio-One (Monroe, N.C.) 1536-well black solid bottom assay plate. 200 millimolar (mM) Tris HCl, pH 7.4, 100 micromolar […] EDTA and 0.01% TWEEN-20™, final concentration, was used as the assay buffer. The LDHA reagent was 2 nanomolar (nM) Human LDHA (Meridian Life Science, Inc., Memphis, Tenn.), final concentration, in assay buffer.

[2] = tested on: MiaPaCa2 cells; assay: cell-based HT lactate assay, colorimetric/fluorometric detection (inhibition of lactate production); settings: class symbols, 0 to 3 pluses
Protocol: Cell-based HT Lactate assay is a miniaturized Biovision Lactate Colorimetric/Fluorometric Assay Kit (Cat #K607-100). The assay is roughly a 3.5 hour assay run in a 1536 plate format. Cell number optimization should be run for each cell line to achieve an optimal number in which lactate production equals roughly 90% of the standard curve range. Cell number per well optimization has been performed with the following cell lines: MiaPaCa2—500 cells/well, SNU398—500 cells/well, and P493—500 cells/well.
The lactate activity in Table 8 is represented by 0 to 3 pluses as follows: +++<1 μM; ++1-10 μM; +10-57 μM; and −>57 μM.

[3] = LDHA inhibitory activity, assay of Example 1, activity level classes
[4] = LDHA inhibitory activity, activity level based on IC50 (Table 7)

IC50 ([2]; Homo sapiens, MIA PaCa-2) [nM] | IC50 [1, 4] [nM] | Structure (SMILES) | further results
10000 to 57000 | – | NS(=O)(=O)c1ccc(Cc2c(-c3ccc(F)c(F)c3)nn(-c3nc(C(=O)O)cs3)c2I)cc1 [Compound 43, 2-(3-(3,4-difluorophenyl)-5-iodo-4-(4-sulfamoylbenzyl)-1H-pyrazol-1-yl)thiazole-4-carboxylic acid] | IC50 [1, 3]: < 100 nM
> 57000 | – | NS(=O)(=O)c1ccc(Cc2c(-c3ccc(F)c(F)c3)nn(-c3nc(C(=O)O)cs3)c2O)cc1 [Compound 53, 2-(3-(3,4-difluorophenyl)-5-hydroxy-4-(4-sulfamoylbenzyl)-1H-pyrazol-1-yl)thiazole-4-carboxylic acid] | –
> 57000 | – | NS(=O)(=O)c1ccc(Cc2c(-c3cccc(-c4ccccc4)c3)nn(-c3nc(C(=O)O)cs3)c2O)cc1 [Compound 54, 2-(3-([1,1′-biphenyl]-3-yl)-5-hydroxy-4-(4-sulfamoylbenzyl)-1H-pyrazol-1-yl)thiazole-4-carboxylic acid] | –
1000 to 10000 | – | NS(=O)(=O)c1ccc(Cc2c(-c3ccccc3)nn(-c3nc(C(=O)O)cs3)c2C#CC2CC2)cc1 [Compound 160, 2-(5-(cyclopropylethynyl)-3-phenyl-4-(4-sulfamoylbenzyl)-1H-pyrazol-1-yl)thiazole-4-carboxylic acid] | IC50 [1, 3]: < 100 nM
< 1000 | – | NS(=O)(=O)c1ccc(Cc2c(-c3cccc(-c4ccccc4)c3)nn(-c3nc(C(=O)O)cs3)c2C2CC2)c(F)c1 [Compound 183, 2-(3-([1,1′-biphenyl]-3-yl)-5-cyclopropyl-4-(2-fluoro-4-sulfamoylbenzyl)-1H-pyrazol-1-yl)thiazole-4-carboxylic acid] | IC50 [1, 3]: < 100 nM
< 1000 | – | NS(=O)(=O)c1ccc(Cc2c(-c3cccc(-c4ccccc4)c3)nn(-c3nc(C(=O)O)cs3)c2CCC2CC2)cc1 [Compound 203, 2-(3-([1,1′-biphenyl]-3-yl)-5-(2-cyclopropylethyl)-4-(4-sulfamoylbenzyl)-1H-pyrazol-1-yl)thiazole-4-carboxylic acid] | IC50 [1, 3]: < 100 nM
1000 to 10000 | – | NS(=O)(=O)c1ccc(Cc2c(C3CC3(F)F)nn(-c3nc(C(=O)O)cs3)c2-c2cccc(-c3ccccc3)c2)cc1 (stereo not drawn) [Compound 206, 2-(5-([1,1′-biphenyl]-3-yl)-3-(2,2-difluorocyclopropyl)-4-(4-sulfamoylbenzyl)-1H-pyrazol-1-yl)thiazole-4-carboxylic acid] | IC50 ([1]; read-out: Inhibitory activity IC50): 1000 to 57000 nM
– | – | N[S+](=O)([O-])c1ccc(Cc2c(-c3cccc(-c4ccccc4)c3)nn(-c3nc(C(=O)O)cs3)c2CC2CC2)cc1 [Compound 276] | IC50 [2]: < 1000 nM
1000 to 10000 | – | NS(=O)(=O)c1ccc(Cc2c(-c3ccc(F)c(OC4CC4)c3)nn(-c3nc(C(=O)O)cs3)c2CC2CC2)cc1F [Compound 471, 2-(3-(3-cydopropoxy-4-fluorophenyl)-5-(cyclopropylmethyl)-4-(3-fluoro-4-sulfamoylbenzyl)-1H-pyrazol-1-yl)thiazole-4-carboxylic acid] | –
1000 to 10000 | – | NS(=O)(=O)c1ccc(Cc2c(-c3cccc(Nc4ccccc4)c3)nn(-c3nc(C(=O)O)cs3)c2CC2CC2)cc1 [Compound 485, 2-(5-(cyclopropylmethyl)-3-(3-(phenylamino)phenyl)-4-(4-sulfamoylbenzyl)-1H-pyrazol-1-yl)thiazole-4-carboxylic acid] | –
1000 to 10000 | – | CC(C)Oc1cccc(-c2nn(-c3nc(C(=O)O)cs3)c(CC3CC3)c2Cc2ccc(S(N)(=O)=O)cc2)c1 [Compound 504, 2-(5-(cyclopropylmethyl)-3-(3-isopropoxyphenyl)-4-(4-sulfamoylbenzyl)-1H-pyrazol-1-yl)thiazole-4-carboxylic Acid] | –
– | < 100 | C/C=C/c1cc(-c2nn(-c3nc(C(=O)O)cs3)c(CC3CC3)c2Cc2ccc(S(N)(=O)=O)c(F)c2)ccc1F [Compound 533, (E)-2-(5-(cyclopropylmethyl)-3-(4-fluoro-3-(prop-1-en-1-yl)phenyl)-4-(3-fluoro-4-sulfamoylbenzyl)-1H-pyrazol-1-yl)thiazole-4-carboxylic acid] | –
– | < 100 | NS(=O)(=O)c1ccc(Cc2c(-c3ccc(F)c(/C=C/C4CCCC4)c3)nn(-c3nc(C(=O)O)cs3)c2CC2CC2)cc1F [Compound 535, (E)-2-(3-(3-(2-cyclopentylvinyl)-4-fluorophenyl)-5-(cyclopropylmethyl)-4-(3-fluoro-4-sulfamoylbenzyl)-1H-pyrazol-1-yl)thiazole-4-carboxylic acid] | –
– | > 57000 | CCOC(=O)c1csc(-n2nc(-c3ccc(F)c(C#CC4CCCC4)c3)c(Cc3cccc(S(N)(=O)=O)c3)c2CC2CC2)n1 [Compound 536, ethyl 2-(3-(3-(cyclopentylethynyl)-4-fluorophenyl)-5-(cyclopropylmethyl)-4-(3-sulfamoylbenzyl)-1H-pyrazol-1-yl)thiazole-4-carboxylate] | –
– | < 100 | CC(C)CC#Cc1cc(-c2nn(-c3nc(C(=O)O)cs3)c(CC3CC3)c2Cc2ccc(S(N)(=O)=O)c(F)c2)ccc1F [Compound 538, 2-(5-(cyclopropylmethyl)-3-(4-fluoro-3-(4-methylpent-1-yn-1-yl)phenyl)-4-(3-fluoro-4-sulfamoylbenzyl)-1H-pyrazol-1-yl)thiazole-4-carboxylic acid] | –
– | < 100 | CCCC#Cc1cc(-c2nn(-c3nc(C(=O)O)cs3)c(CC3CC3)c2Cc2ccc(S(N)(=O)=O)c(F)c2)ccc1F [Compound 539, 2-(5-(cyclopropylmethyl)-3-(4-fluoro-3-(pent-1-yn-1-yl)phenyl)-4-(3-fluoro-4-sulfamoylbenzyl)-1H-pyrazol-1-yl)thiazole-4-carboxylic acid] | –

Structure (SMILES) | IC50 ([2]; Homo sapiens, MIA PaCa-2) [nM] | IC50 [1, 4] [nM] | further results
Cc1c(Cc2ccc(S(N)(=O)=O)cc2)c(-c2ccccc2)nn1-c1nc(C(=O)O)cs1 [Compound 47, 2-(5-methyl-3-phenyl-4-(4-sulfamoylbenzyl)-1H-pyrazol-1-yl)thiazole-4-carboxylic acid] | > 57000 | – | IC50 [1, 3]: < 100 nM
Cc1ccc(-c2cc(-c3nn(-c4nc(C(=O)O)cs4)c(CC4CC4)c3Cc3ccc(S(N)(=O)=O)cc3F)ccc2F)cc1 [Compound 472, 2-(5-(cyclopropylmethyl)-3-(6-fluoro-4′-methyl-[1,1′-biphenyl]-3-yl)-4-(2-fluoro-4-sulfamoylbenzyl)-1H-pyrazol-1-yl)thiazole-4-carboxylic acid] | < 1000 | – | –
NS(=O)(=O)c1ccc(Cc2c(-c3cccc(OC4CCCC4)c3)nn(-c3nc(C(=O)O)cs3)c2CC2CC2)cc1 [Compound 477, 2-(3-(3-(cyclopentyloxy)phenyl)-5-(cyclopropylmethyl)-4-(4-sulfamoylbenzyl)-1H-pyrazol-1-yl)thiazole-4-carboxylic Acid] | < 1000 | – | –
C=C(C)c1cc(-c2nn(-c3nc(C(=O)O)cs3)c(CC3CC3)c2Cc2ccc(S(N)(=O)=O)c(F)c2)ccc1F [Compound 534, 2-(5-(cyclopropylmethyl)-3-(4-fluoro-3-(prop-1-en-2-yl)phenyl)-4-(3-fluoro-4-sulfamoylbenzyl)-1H-pyrazol-1-yl)thiazole-4-carboxylic acid] | – | < 100 | –
CCCCC#Cc1cc(-c2nn(-c3nc(C(=O)O)cs3)c(CC3CC3)c2Cc2ccc(S(N)(=O)=O)c(F)c2)ccc1F [Compound 540, 2-(5-(cyclopropylmethyl)-3-(4-fluoro-3-(hex-1-yn-1-yl)phenyl)-4-(3-fluoro-4-sulfamoylbenzyl)-1H-pyrazol-1-yl)thiazole-4-carboxylic acid] | – | < 100 | –
